# Tests used:
# PDX UPNT775 = experiment: Ex vivo testing on PDX samples (viability, flow cytometry, 72 h); format: cell-based, human
# Text: (§1) Bone marrow-infiltrating blasts from terminally mice bearing PDX as stated above were collected as established before. Extensive analysis (immunophenotype and molecular analysis) of matched primary and PDX samples used in the study are shown in Supplementary Table 7, showing that they remain stable. Briefly, after euthanasia, bone marrows from tibiae, hips, femurs, and vertebrae were isolated and blasts collected for subsequent ex vivo experiments. All samples used contained ≥90% blasts as determined by flow cytometry. For the cytotoxic evaluation of OR0642, blasts were then stained with CellTraceTM Violet (CTV, Thermo Fisher Scientific, C34557) prior seeding at 10,000 cells into 96-well plates under normal conditions or pre-plated with OP9-DL1 cells. Cells were cultured in RPMI 1640 supplemented with 20% fetal bovine serum, 50 µg/ml streptomycin, 50 UI penicillin, 4 mM L-glutamine, and a cocktail of human cytokines as previously established (50 ng/ml human stem cell factor, 20 ng/ml hFLT3-L, 10 ng/ml hIL-7 and 20 nM insulin (Miltenyi Biotec))[28]. […] Rescue by dC supplementation (1 µM) was also evaluated. OR0642 was then tested alone, or combined with dT or dT + dC at two concentrations (0.25 and 0.5 µM). Cell viability was evaluated by flow cytometry 72 h post-treatment. Proliferation indexes were calculated using the detection of CTV in the control replicates (DMSO) and the proliferation modeling tool of FlowJo™ Software 10.7.1 (BD Life Sciences). A control peak of undivided CTV-stained cells was systematically used to set the undivided fraction.
# PDX UPNTAGG = experiment: as above; format: cell-based, human
# Text: as §1
smiles,measurement,setting,value
"Cc1cn([C@H]2C[C@H](O)[C@@H](CO)O2)c(=O)[nH]c1=O [dT, thymidine]",viability at 12 µM,"PDX UPNT775; Homo sapiens, UPNT775, dT 12 µM, read-out: Cell viability, Mean (% viab)",100%
same,viability at 37 µM,"PDX UPNT775; Homo sapiens, UPNT775, dT 37 µM, read-out: Cell viability, Mean (% viab)",86.3%
same,viability at 111 µM,"PDX UPNT775; Homo sapiens, UPNT775, dT 111 µM, read-out: Cell viability, Mean (% viab)",53.9%
same,viability at 333 µM,"PDX UPNT775; Homo sapiens, UPNT775, dT 333 µM, read-out: Cell viability, Mean (% viab)",40.5%
same,viability at 1000 µM,"PDX UPNT775; Homo sapiens, UPNT775, dT 1000 µM, read-out: Cell viability, Mean (% viab)",36%
same,viability at 3000 µM,"PDX UPNT775; Homo sapiens, UPNT775, dT 3000 µM, read-out: Cell viability, Mean (% viab)",36.7%
same,Response at dT100 µM,"PDX UPNT775; PDX 775, dT 100 µM",63
same,viability at 12 µM,"PDX UPNTAGG; Homo sapiens, UPNTAGG, dT 12 µM, read-out: Cell viability, Mean (% viab)",100%
same,viability at 37 µM,"PDX UPNTAGG; Homo sapiens, UPNTAGG, dT 37 µM, read-out: Cell viability, Mean (% viab)",87.6%
same,viability at 111 µM,"PDX UPNTAGG; Homo sapiens, UPNTAGG, dT 111 µM, read-out: Cell viability, Mean (% viab)",82.2%
same,viability at 333 µM,"PDX UPNTAGG; Homo sapiens, UPNTAGG, dT 333 µM, read-out: Cell viability, Mean (% viab)",73.3%
same,viability at 1000 µM,"PDX UPNTAGG; Homo sapiens, UPNTAGG, dT 1000 µM, read-out: Cell viability, Mean (% viab)",65.7%
same,viability at 3000 µM,"PDX UPNTAGG; Homo sapiens, UPNTAGG, dT 3000 µM, read-out: Cell viability, Mean (% viab)",58.6%
same,Response at dT100 µM,"PDX UPNTAGG; PDX AGG, dT 100 µM",38

# From article PMC10227015, “From a drug repositioning to a structure-based drug design approach to tackle acute lymphoblastic leukemia” (Nature Communications, 2023)
